# Reference: patent publication EP0874630B1, “TOP[…] POISON AND BIS-DIOXY[…] COMBINATION THERAPY” (priority 1996, dated 1997)
# Where “and” joins values, the source holds several entries; their conditions need not be identical. Equal values may be shown once. Read-outs that look alike come from different tables or passages of the source.
# How the values were obtained:
# [1] = tested on: Ehrlich's ascites tumour cells; assay: Therapy study, mice inoculated i.p. with Ehrlich's ascites tumour cells (increase in life span); format: in vivo
# Procedure: (§1) In therapy studies, mice were inoculated i.p. with either 10^5 L1210 leukemia cells or 15x10^6 Ehrlich's ascites tumour cells on day 0 and treated with drugs i.p. on day 4 after inoculation. The brain tumour model consisted of 10^4 L1210 cells or 15x10^4 Ehrlich's ascites tumour cells in a volume of 30 µl of isotonic sodium chloride inoculated on day 0 into the temporal region followed by treatment i.p. on day 2, 3 or 4 after inoculation.
# (§2) 1×10^5 L1210 tumour cells or 15×10^6 Ehrlich's ascites tumour cells were inoculated i.p. on day 0 and mice were treated i.p. on day 4. The Mann Whitney test was used for statistical evaluation.
# mice [2] = conditions: mouse
# Procedure: First generation hybrids of female random bred Swiss mice and male inbred DBA (NDF1-hybrid) mice were used as previously described (5). The mice weighed between 19 and 21 g at the start of the experiments. […] Lethality was recorded and surviving mice were sacrificed after 60 days. Toxicity was evaluated by weight and leucocyte counts. For weight evaluations mice were treated with drugs, marked and weighed for eleven consecutive days. Blood for leucocyte counts was obtained from a tail vein and counted in a hemocytometer on days 3, 5 and 7 after treatment.
# L1210 leukemia cells = assay: Therapy study, mice inoculated i.p. with L1210 leukemia cells (increase in life span); format: in vivo
# Procedure: as §1, §2
# mice [3] = conditions: for increase in LD10 enabled by ICRF-187: LD10 of the topoisomerase II poison with ICRF-187 versus alone, mice
# Text: Calculation of LD10 and LD50 using the maximum likelihood estimation. The 6 experiments in Table 2 are included in the computations.
# mice [4] = assay: Lethality in healthy mice after drugs given once i.p., with or without ICRF-187 pretreatment (survivors/treated); format: in vivo; conditions: for survivors/treated: compiled data from two experiments
# Procedure: Toxicity was evaluated by weight and leucocyte counts.
# The compiled data from two experiments showing that paclitaxel induced lethality cannot be protected by pretreamtment with ICRF-187. Groups of 11 mice were treated once i.p. with or without pretreatment with ICRF-187.
# [5] = NDF1 hybrid (female Swiss x male DBA), mouse, in vivo, ip, 60 days
smiles,measurement,setting,value
"C[C@@H](CN1CC(=O)NC(=O)C1)N1CC(=O)NC(=O)C1 [ICRF-187, (+)-1,2-bis(3,5-dioxopiperazinyl-1-yl)propane]",antitumour effect,"[1]; ICRF-187 alone, mice inoculated i.p. with Ehrlich's ascites tumour",no antitumour effect
same,survivors/treated,"mice [2]; NDF1 hybrid (female Swiss x male DBA), in vivo, 100 mg/kg, 60 days",11/11
same,ICRF-187 mediated protection in vivo,mice [2],not obtained
same,antitumour effect,"L1210 leukemia cells; ICRF-187 alone, mice inoculated i.p. with L1210 tumour cells",no antitumour effect
same,LD10,mice [3]; [5],500 mg/kg
same,LD90,mice [3]; [5],1500 mg/kg
"CC(=O)O[C@H]1C(=O)[C@@]2(C)[C@H]([C@H](OC(=O)c3ccccc3)[C@]3(O)C[C@H](OC(=O)[C@H](O)[C@@H](NC(=O)c4ccccc4)c4ccccc4)C(C)=C1C3(C)C)[C@]1(OC(C)=O)CO[C@@H]1C[C@@H]2O [Paclitaxel, paclitaxel]","Survivors/ treated, %",mice [4]; Paclitaxel 30 mg/kg alone,100%
same,survivors/treated,mice [4]; Paclitaxel 30 mg/kg alone,22/22
same,"Survivors/ treated, %",mice [4]; Paclitaxel 40 mg/kg alone,55%
same,survivors/treated,mice [4]; Paclitaxel 40 mg/kg alone,12/22
same,"Survivors/ treated, %",mice [4]; Paclitaxel 50 mg/kg alone,0%
same,survivors/treated,mice [4]; Paclitaxel 50 mg/kg alone,0/22
COc1cc([C@@H]2c3cc4c(cc3[C@@H](O[C@@H]3O[C@@H]5CO[C@@H](C)O[C@H]5[C@H](O)[C@H]3O)[C@H]3COC(=O)[C@H]23)OCO4)cc(OC)c1O [etoposide],ILS(%),"[1]; Etoposide 33 mg/kg i.p. on day 4, 15×10^6 Ehrlich's ascites tumour cells i.p. on day 0",53% and 40% and 35%
same,"increased life span, ILS(%) (etoposide alone set to 100)","[1]; Table 5A, Etoposide 33 mg/kg, Ehrlich's tumour cells i.p.",100%
same,ILS(%),"L1210 leukemia cells; Etoposide 33 mg/kg i.p. on day 4, 1×10^5 L1210 tumour cells i.p. on day 0",113% and 100% and 88%
same,"increased life span, ILS(%) (etoposide alone set to 100)","L1210 leukemia cells; Table 5B, Etoposide 33 mg/kg, L 1210 tumour cells i.p.",100%
same,increase in LD10 enabled by ICRF-187,mice [3],3.6 fold
same,LD10,"mice [3]; dose of etoposide killing 10% of the mice, maximum likelihood estimation, 6 experiments of Table 2, combination with 125 mg/kg ICRF-187, 125 mg/kg",34 mg/kg and 33 mg/kg
same,LD10,"mice [3]; dose of etoposide killing 10% of the mice, maximum likelihood estimation, 6 experiments of Table 2, combination with 125 mg/kg ICRF-187, listed as VP-16, 125 mg/kg",34.0 mg/kg
same,log LD10,"mice [3]; maximum likelihood estimation on the 6 experiments of Table 2, combination with 125 mg/kg ICRF-187",1.531
COc1cc([C@@H]2c3cc4c(cc3[C@@H](O[C@@H]3O[C@@H]5CO[C@@H](c6cccs6)O[C@H]5[C@H](O)[C@H]3O)[C@H]3COC(=O)[C@H]23)OCO4)cc(OC)c1O [teniposide],increase in LD10 enabled by ICRF-187,mice [3],3.4 fold
